# Counter-ions that a name gives are not always drawn.
# Legend:
# Notch1 = biological target: T1, Notch1 (Homo sapiens, UniProt P46531); test: Notch1 Reporter Assay (CSL-responsive luciferase, doxycycline-induced Notch-ICD in 293A cells); type: cell-based; settings: 25 ng/mL Dox, 24 h, luciferase normalized to cell viability
# T1 construct: pLV[Tet]-Puro-TRE3G>Notch1-ICD; expressed in transfected cells; host or cells: 293A cells
# Description: 293A cells expressing 1) pCMV-Tet-On 3G, 2) pLV[Tet]-Puro-TRE3G>Notch1-ICD, 3) pLV[Tet]-Puro-TRE3G>Notch2-ICD, 4) pLV[Tet]-Puro-TRE3G>Notch3-ICD, and 5) pCSL-RElement-Luc were used. When Doxycycline is added, the Tet-ON gene activates expression of hNotch1ICD, which together with endogenous NTC components binds to CSL responsive elements (pCSL-RElement-Luc) and expresses luciferase. 1×10^4 cells are plated in 100 μL (96-well format). 24 h later, compounds (10 mM stock in DMSO) are diluted in DMSO to 200×, then added (5 ul into 1 mL) to cell culture media containing 50 ng/mL Dox. This is then added 1:1 to cells. Final DMSO=0.25%, Dox=25 ng/mL. After 24 h, media is discarded, and cells are lysed in passive lysis buffer (Promega). Cells are rocked at room temperature for 15 min and then lysate is divided for luciferase assay (Luciferase Assay System, Promega) and cell viability (CellTiter Glo 2.0, Promega). Raw luciferase is normalized to cell viability, and then scaled to DMSO wells. Results are analyzed and IC50's are determined in GraphPad by nonlinear regression curve fitting (4 parameter) of dose response curves.
# [1] = system: OE33 Esophageal Adenocarcinoma cell line; test: OE33 Colony Formation Assay; type: cell-based; settings: Homo sapiens, 200 cells/well, compound every 48 hours for 7 days, CellTiter-Glo
# Description: OE33 Colony Formation Assay:
# The OE33 Esophageal Adenocarcinoma cell line was cultured and plated into 96-well tissue culture plates under sparse conditions (200 cells/well). Test compounds were serially diluted in DMSO and then into culture media (final DMSO concentration=0.1%). Compound/media was then added to cells every 48 hours for a total of 7 days. Clonogenic growth was assessed using the CellTiter-Glo reagent, according to manufacturer (Promega) specifications. Percent inhibition was calculated as the percent of luminescence normalized to control (0.1% DMSO) wells. Nonlinear regression curve fitting was performed using GraphPad Prism software to determine EC50's.
# T1 sequence (P46531 1754-2555 limits assumed): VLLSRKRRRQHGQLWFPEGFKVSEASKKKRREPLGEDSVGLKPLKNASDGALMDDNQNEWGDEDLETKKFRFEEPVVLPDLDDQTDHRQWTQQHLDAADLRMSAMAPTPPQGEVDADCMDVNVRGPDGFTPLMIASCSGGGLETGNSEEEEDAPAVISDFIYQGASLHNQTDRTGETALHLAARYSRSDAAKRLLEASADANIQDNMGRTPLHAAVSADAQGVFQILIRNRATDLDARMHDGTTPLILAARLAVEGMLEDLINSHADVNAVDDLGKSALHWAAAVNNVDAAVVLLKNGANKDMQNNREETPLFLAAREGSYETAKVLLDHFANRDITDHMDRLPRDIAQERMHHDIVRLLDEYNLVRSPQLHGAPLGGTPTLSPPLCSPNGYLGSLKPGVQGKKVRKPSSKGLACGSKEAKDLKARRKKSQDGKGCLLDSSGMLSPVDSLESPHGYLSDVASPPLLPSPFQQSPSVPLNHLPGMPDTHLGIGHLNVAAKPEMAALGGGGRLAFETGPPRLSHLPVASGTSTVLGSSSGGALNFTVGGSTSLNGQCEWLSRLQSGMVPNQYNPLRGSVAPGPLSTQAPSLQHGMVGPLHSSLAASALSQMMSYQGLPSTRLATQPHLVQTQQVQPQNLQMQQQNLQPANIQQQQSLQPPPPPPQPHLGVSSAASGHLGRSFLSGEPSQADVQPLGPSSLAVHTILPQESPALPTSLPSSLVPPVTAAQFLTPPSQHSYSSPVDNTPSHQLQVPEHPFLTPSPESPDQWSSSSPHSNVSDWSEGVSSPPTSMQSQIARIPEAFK
EC50 [1] [µM],SMILES,IC50 (Notch1) [µM]
18.8,"COc1cc(-c2cc(C(F)(F)F)cc3c2n(C)c(=O)n3CC(=O)Nc2ccc(F)nc2)cc(F)c1OCc1nnc[nH]1 [SSTN-609, 2-(4-(4-((4H-1,2,4-triazol-3-yl)methoxy)-3-fluoro-5-methoxyphenyl)-3-methyl-2-oxo-6-(trifluoromethyl)-2,3-dihydro-1H-benzo[d]imidazol-1-yl)-N-(6-fluoropyridin-3-yl)acetamide]",10.3
1.7,"COc1cc(-c2cc(C(F)(F)F)cc3c2n(C)c(=O)n3CC(=O)Nc2cccc(Cl)c2)cc(F)c1OCc1nnc[nH]1 [SSTN-490, 2-(4-(4-((4H-1,2,4-triazol-3-yl)methoxy)-3-fluoro-5-methoxyphenyl)-3-methyl-2-oxo-6-(trifluoromethyl)-2,3-dihydro-1H-benzo[d]imidazol-1-yl)-N-(3-chlorophenyl)acetamide hydrochloride]",5.5
4.3,"COc1cc(-c2cc(C(F)(F)F)cc3c2n(C)c(=O)n3CC(=O)Nc2cccc(N3CCN(C)CC3)c2)cc(F)c1OCc1nnc[nH]1 [SSTN-559, 2-(4-(4-((4H-1,2,4-triazol-3-yl)methoxy)-3-fluoro-5-methoxyphenyl)-3-methyl-2-oxo-6-(trifluoromethyl)-2,3-dihydro-1H-benzo[d]imidazol-1-yl)-N-(3-(4-methylpiperazin-1-yl)phenyl)acetamide]",19.9
4.6,"COc1cc(-c2cc(C(F)(F)F)cc3c2n(C)c(=O)n3CC(=O)Nc2ccccc2Cl)cc(F)c1OCc1nnc[nH]1 [SSTN-491, 2-(4-(4-((4H-1,2,4-triazol-3-yl)methoxy)-3-fluoro-5-methoxyphenyl)-3-methyl-2-oxo-6-(trifluoromethyl)-2,3-dihydro-1H-benzo[d]imidazol-1-yl)-N-(2-chlorophenyl)acetamide hydrochloride]",11.1
3.7,"COc1cc(-c2cc(C(F)(F)F)cc3c2n(C)c(=O)n3CC(=O)Nc2cccc(F)c2)cc(F)c1OCc1nnc[nH]1 [SSTN-496, 2-(4-(4-((4H-1,2,4-triazol-3-yl)methoxy)-3-fluoro-5-methoxyphenyl)-3-methyl-2-oxo-6-(trifluoromethyl)-2,3-dihydro-1H-benzo[d]imidazol-1-yl)-N-(3-fluorophenyl)acetamide hydrochloride]",6
1.7,"COc1cc(-c2cc(C(F)(F)F)cc3c2n(C)c(=O)n3CC(=O)Nc2cccc(C(C)(C)C)c2)cc(F)c1OCc1nnc[nH]1 [SSTN-555, 2-(4-(4-((4H-1,2,4-triazol-3-yl)methoxy)-3-fluoro-5-methoxyphenyl)-3-methyl-2-oxo-6-(trifluoromethyl)-2,3-dihydro-1H-benzo[d]imidazol-1-yl)-N-(3-(tert-butyl)phenyl)acetamide]",4.1
3,"COc1cc(-c2cc(C(F)(F)F)cc3c2n(C)c(=O)n3CC(=O)Nc2ccc(SC)cc2)cc(F)c1OCc1nnc[nH]1 [SSTN-498, 2-(4-(4-((4H-1,2,4-triazol-3-yl)methoxy)-3-fluoro-5-methoxyphenyl)-3-methyl-2-oxo-6-(trifluoromethyl)-2,3-dihydro-1H-benzo[d]imidazol-1-yl)-N-(4-(methylthio)phenyl)acetamide hydrochloride]",8.5
5.2,"COc1cc(-c2cc(C(F)(F)F)cc3c2n(C)c(=O)n3CC(=O)Nc2ccc(F)cc2)cc(F)c1OCc1nnc[nH]1 [compound 465, 2-(4-(4-((4H-1,2,4-triazol-3-yl)methoxy)-3-fluoro-5-methoxyphenyl)-3-methyl-2-oxo-6-(trifluoromethyl)-2,3-dihydro-1H-benzo[d]imidazol-1-yl)-N-(4-fluorophenyl)acetamide hydrochloride]",8.6
2.3,"COCc1cccc(NC(=O)Cn2c(=O)n(C)c3c(-c4cc(F)c(OCc5nnc[nH]5)c(OC)c4)cc(C(F)(F)F)cc32)c1 [SSTN-548, 2-(4-(4-((4H-1,2,4-triazol-3-yl)methoxy)-3-fluoro-5-methoxyphenyl)-3-methyl-2-oxo-6-(trifluoromethyl)-2,3-dihydro-1H-benzo[d]imidazol-1-yl)-N-(3-(methoxymethyl)phenyl)acetamide]",8.7

# The next lines start with the molecule.
SMILES,EC50 [1] [µM],IC50 (Notch1) [µM]
"COc1cc(-c2cc(C(F)(F)F)cc3c2n(C)c(=O)n3CC(=O)N(C)c2ccc(F)cc2)cc(F)c1OCc1nnc[nH]1 [compound 440, 2-(4-(4-((4H-1,2,4-triazol-3-yl)methoxy)-3-fluoro-5-methoxyphenyl)-3-methyl-2-oxo-6-(trifluoromethyl)-2,3-dihydro-1H-benzo[d]imidazol-1-yl)-N-(4-fluorophenyl)-N-methylacetamide hydrochloride]",4.6,3.1
"COc1cc(-c2cc(C(F)(F)F)cc3c2n(C2CC2)c(=O)n3CC(=O)N(C)c2ccc(F)cc2)cc(F)c1OCc1nnc[nH]1 [compound 464, 2-(4-(4-((4H-1,2,4-triazol-3-yl)methoxy)-3-fluoro-5-methoxyphenyl)-3-cyclopropyl-2-oxo-6-(trifluoromethyl)-2,3-dihydro-1H-benzo[d]imidazol-1-yl)-N-(4-fluorophenyl)-N-methylacetamide hydrochloride]",1.3,1.7
"COc1cc(-c2cc(C(F)(F)F)cc3c2n(C)c(=O)n3CC(=O)Nc2ccc(F)cc2)ccc1OCc1nnc[nH]1 [SSTN-598, 2-(4-(4-((4H-1,2,4-triazol-3-yl)methoxy)-3-methoxyphenyl)-3-methyl-2-oxo-6-(trifluoromethyl)-2,3-dihydro-1H-benzo[d]imidazol-1-yl)-N-(4-fluorophenyl)acetamide hydrochloride salt]",11.6,6.4
"COc1cc(-c2cc(C(F)(F)F)cc3c2n(C)c(=O)n3CC(=O)Nc2ccc(S(C)(=O)=O)cc2)cc(F)c1OCc1nnc[nH]1 [SSTN-503, 2-(4-(4-((4H-1,2,4-triazol-3-yl)methoxy)-3-fluoro-5-methoxyphenyl)-3-methyl-2-oxo-6-(trifluoromethyl)-2,3-dihydro-1H-benzo[d]imidazol-1-yl)-N-(4-(methylsulfonyl)phenyl)acetamide hydrochloride]",8.4,12.5
"COc1cc(-c2cc(C(F)(F)F)cc3c2n(C)c(=O)n3CC(=O)Nc2cccc(N3CCOCC3)c2)cc(F)c1OCc1nnc[nH]1 [SSTN-558, 2-(4-(4-((4H-1,2,4-triazol-3-yl)methoxy)-3-fluoro-5-methoxyphenyl)-3-methyl-2-oxo-6-(trifluoromethyl)-2,3-dihydro-1H-benzo[d]imidazol-1-yl)-N-(3-morpholinophenyl)acetamide]",4.7,9.4
"COc1cc(-c2cc(C(F)(F)F)cc3c2n(C)c(=O)n3CC(=O)Nc2ccc(OC(F)F)cc2)cc(F)c1OCc1nnc[nH]1 [SSTN-497, 2-(4-(4-((4H-1,2,4-triazol-3-yl)methoxy)-3-fluoro-5-methoxyphenyl)-3-methyl-2-oxo-6-(trifluoromethyl)-2,3-dihydro-1H-benzo[d]imidazol-1-yl)-N-(4-(difluoromethoxy)phenyl)acetamide hydrochloride]",2.9,6.9
"COc1cc(-c2cc(OC(F)(F)F)cc3c2n(C)c(=O)n3CC(=O)Nc2ccc(F)cc2)cc(F)c1OCc1nnc[nH]1 [SSTN-600, 2-(4-(4-((4H-1,2,4-triazol-3-yl)methoxy)-3-fluoro-5-methoxyphenyl)-3-methyl-2-oxo-6-(trifluoromethoxy)-2,3-dihydro-1H-benzo[d]imidazol-1-yl)-N-(4-fluorophenyl)acetamide hydrochloride salt]",6.6,5.8
"COc1cc(-c2cc(C(F)(F)F)cc3c2n(C)c(=O)n3CC(=O)Nc2cccc(-c3ccccc3)c2)cc(F)c1OCc1nnc[nH]1 [SSTN-546, 2-(4-(4-((4H-1,2,4-triazol-3-yl)methoxy)-3-fluoro-5-methoxyphenyl)-3-methyl-2-oxo-6-(trifluoromethyl)-2,3-dihydro-1H-benzo[d]imidazol-1-yl)-N-([1,1′-biphenyl]-3-yl)acetamide]",3.6,4.2
"COC(=O)c1cc(OCc2nnc[nH]2)c(OC)cc1-c1cc(C(F)(F)F)cc2c1n(C)c(=O)n2CC(=O)Nc1ccc(F)cc1 [SSTN-604, Methyl 5-((4H-1,2,4-triazol-3-yl)methoxy)-2-(1-(2-((4-fluorophenyl)amino)-2-oxoethyl)-3-methyl-2-oxo-6-(trifluoromethyl)-2,3-dihydro-1H-benzo[d]imidazol-4-yl)-4-methoxybenzoate hydrochloride salt]",18.9,10.4

# From patent US20230183215A1, “Notch Inhibitors and Uses Thereof” (StemSynergy Therapeutics, Inc., priority 2020, published 2023)
